What was measured:
[1] = CO concentration achievable in aqueous composition (water) at given temperature and pressure; type: physicochemical
Text: There are a number of significant limitations to using the delivery of CO dissolved in liquid and used through the GI tract or IV for therapeutic or prophylactic purposes. These limitations have been overcome in the present invention. The primary barrier to date has been delivering sufficient quantities of CO. The solubility of CO in aqueous solutions is low at room temperature and normal atmospheric pressure (ATM). Thus, using approaches previously proposed in the art, which rely on dissolving CO into an aqueous composition at room temperature and at atmospheric pressure, the volume of liquid necessary to deliver a therapeutic dose of CO is logistically prohibitive. However, using the present invention, therapeutically useful levels of CO can be achieved. Table 1 provides a summary of volumes necessary to achieve a therapeutic dose providing an average increase of […] CO-Hb, which provides an average CO-Hb level in the blood of about 7% on average without rising above 15% at any given time. The values are presented for SCD patients. Table 2 provides a similar summary of volumes necessary to treat patients having normal levels of Hb and normal lung function.
First, in the present invention, in particular as it relates to embodiments wherein aqueous compositions are involved, CO is dissolved in an aqueous liquid under higher than ambient pressure. The use of pressure to dissolve the CO increases the achievable concentration of CO in solution. […] Although raising the pressure above 10 ATM might not be commercially practicable, it is technologically feasible at this time. […]

[2] = cited from earlier work
[3] = cited from earlier work; remark: listed apart in the source

Compound: [C-]#[O+] [CO, carbon monoxide]
- CO Concentration Achievable in Aqueous Composition ([1]; 2° C., 1 ATM): 40 mg/L water
- CO Concentration in Aqueous Solution ([1]; 2° C., 1 ATM): 40 mg/L water
- CO Concentration Achievable in Aqueous Composition ([1]; 2° C., 2 ATM): 80 mg/L water
- CO Concentration in Aqueous Solution ([1]; 2° C., 2 ATM): 80 mg/L water
- CO Concentration Achievable in Aqueous Composition ([1]; 2° C., 3 ATM): 120 mg/L water
- CO Concentration in Aqueous Solution ([1]; 2° C., 3 ATM): 120 mg/L water
- CO Concentration Achievable in Aqueous Composition ([1]; 2° C., 5 ATM): 200 mg/L water
- CO Concentration in Aqueous Solution ([1]; 2° C., 5 ATM): 200 mg/L water
- CO Concentration Achievable in Aqueous Composition ([1]; 2° C., 10 ATM): 400 mg/L water
- CO Concentration in Aqueous Solution ([1]; 2° C., 10 ATM): 400 mg/L water
- CO Concentration Achievable in Aqueous Composition ([1]; 21° C., 1 ATM): 25 mg/L water
- half-life of the alpha-phase of CO in the human bloodstream [2]: 4 to 6 h
- CO-Hb level at which toxicity and side effects are routinely seen ([3]; generally recognized): over 20%
- CO-Hb level showing effectiveness at reducing SCC without significant deleterious side effects or toxicity ([3]; generally recognized): up to 15 % CO-Hb
- Hb saturation likely resulting in CO-induced death unless treatment is provided ([3]; reported (Stewart 1975)): over 67%
- Hb saturation resulting in loss of consciousness, among other serious morbidities ([3]; reported, can result in death if maintained long-term): over 30%
